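In this assay, cells in 96-well plates receive the compound at five concentrations for 48 hours. Endpoints are linearly interpolated between the surrounding concentrations. TGI: concentration producing complete growth inhibition.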
Columns and labels:
Assay in all cases: growth of human tumour cells (NCI), 48 h
TK-10 renal = tested on: TK-10 renal
IGROV1 ovarian = tested on: IGROV1 ovarian
NCI-H23 lung = tested on: NCI-H23 lung
OVCAR-8 ovarian = tested on: OVCAR-8 ovarian
SF-268 CNS = tested on: SF-268 CNS
HCT-116 colon = tested on: HCT-116 colon
OVCAR-3 ovarian = tested on: OVCAR-3 ovarian
SK-MEL-5 melanoma = tested on: SK-MEL-5 melanoma
MALME-3M melanoma = tested on: MALME-3M melanoma
T-47D breast = tested on: T-47D breast
SR leukemia = tested on: SR leukemia
MDA-MB-231 breast = tested on: MDA-MB-231 breast
MDA-N = tested on: MDA-N
MCF7 breast = tested on: MCF7 breast
A549 NSCLC = tested on: A549 NSCLC
COLO 205 colon = tested on: COLO 205 colon
NCI/ADR-RES ovarian = tested on: NCI/ADR-RES ovarian
HL-60(TB) leukemia = tested on: HL-60(TB) leukemia
HCC-2998 colon = tested on: HCC-2998 colon
SNB-19 CNS = tested on: SNB-19 CNS
SNB-75 CNS = tested on: SNB-75 CNS
EKVX NSCLC = tested on: EKVX NSCLC
NCI-H460 lung = tested on: NCI-H460 lung
HOP-92 NSCLC = tested on: HOP-92 NSCLC
HS 578T breast = tested on: HS 578T breast
UO-31 renal = tested on: UO-31 renal
OVCAR-5 ovarian = tested on: OVCAR-5 ovarian
ACHN renal = tested on: ACHN renal
MOLT-4 leukemia = tested on: MOLT-4 leukemia
PC-3 prostate = tested on: PC-3 prostate
SF-539 CNS = tested on: SF-539 CNS
SF-295 CNS = tested on: SF-295 CNS
RPMI-8226 leukemia = tested on: RPMI-8226 leukemia
SK-MEL-2 melanoma = tested on: SK-MEL-2 melanoma
HOP-62 NSCLC = tested on: HOP-62 NSCLC
SK-OV-3 ovarian = tested on: SK-OV-3 ovarian
786-0 renal = tested on: 786-0 renal
M14 melanoma = tested on: M14 melanoma
DU-145 prostate = tested on: DU-145 prostate
NCI-H226 lung = tested on: NCI-H226 lung
RXF 393 renal = tested on: RXF 393 renal
BT-549 breast = tested on: BT-549 breast
SK-MEL-28 melanoma = tested on: SK-MEL-28 melanoma
MDA-MB-435 = tested on: MDA-MB-435
SW-620 colon = tested on: SW-620 colon
CCRF-CEM leukemia = tested on: CCRF-CEM leukemia
U251 CNS = tested on: U251 CNS
UACC-257 melanoma = tested on: UACC-257 melanoma
KM12 colon = tested on: KM12 colon
HCT-15 colon = tested on: HCT-15 colon
OVCAR-4 ovarian = tested on: OVCAR-4 ovarian
SN12C renal = tested on: SN12C renal
CAKI-1 renal = tested on: CAKI-1 renal
HT29 colon = tested on: HT29 colon
A498 renal = tested on: A498 renal
K-562 leukemia = tested on: K-562 leukemia
NCI-H522 lung = tested on: NCI-H522 lung
UACC-62 melanoma = tested on: UACC-62 melanoma
LOX IMVI melanoma = tested on: LOX IMVI melanoma

## COc1c(O)ccc(C2=Cc3ccc(O)cc3OC2)c1OC
TK-10 renal
  TGI: > 100 µM
IGROV1 ovarian
  TGI: > 100 µM
NCI-H23 lung
  TGI: > 58.3 µM
OVCAR-8 ovarian
  TGI: > 62.5 µM
SF-268 CNS
  TGI: > 100 µM
HCT-116 colon
  TGI: > 61.7 µM
OVCAR-3 ovarian
  TGI: 34 µM
SK-MEL-5 melanoma
  TGI: 38.5 µM
MALME-3M melanoma
  TGI: 65.7 µM
T-47D breast
  TGI: > 82.3 µM
SR leukemia
  TGI: 17.1 µM
MDA-MB-231 breast
  TGI: > 80.7 µM
MDA-N
  TGI: 33.5 µM
MCF7 breast
  TGI: > 100 µM
A549 NSCLC
  TGI: > 78.9 µM
COLO 205 colon
  TGI: > 74 µM
NCI/ADR-RES ovarian
  TGI: > 67.9 µM
HL-60(TB) leukemia
  TGI: 10.7 µM
HCC-2998 colon
  TGI: 47.1 µM
SNB-19 CNS
  TGI: > 100 µM
SNB-75 CNS
  TGI: > 58.3 µM
EKVX NSCLC
  TGI: > 100 µM
NCI-H460 lung
  TGI: > 100 µM
HOP-92 NSCLC
  TGI: > 74 µM
HS 578T breast
  TGI: > 95.3 µM
UO-31 renal
  TGI: 28.4 µM
OVCAR-5 ovarian
  TGI: 97.7 µM
ACHN renal
  TGI: > 63.4 µM
MOLT-4 leukemia
  TGI: 37 µM
PC-3 prostate
  TGI: 84.4 µM
SF-539 CNS
  TGI: 35.3 µM
SF-295 CNS
  TGI: > 83.6 µM
RPMI-8226 leukemia
  TGI: > 26.8 µM
SK-MEL-2 melanoma
  TGI: 68 µM
HOP-62 NSCLC
  TGI: 62.4 µM
SK-OV-3 ovarian
  TGI: > 80.8 µM
786-0 renal
  TGI: > 63.5 µM
M14 melanoma
  TGI: 66.8 µM
DU-145 prostate
  TGI: > 79.6 µM
NCI-H226 lung
  TGI: > 65.4 µM
RXF 393 renal
  TGI: > 63.5 µM
BT-549 breast
  TGI: > 82.4 µM
SK-MEL-28 melanoma
  TGI: > 94 µM
MDA-MB-435
  TGI: > 92.2 µM
SW-620 colon
  TGI: > 100 µM
CCRF-CEM leukemia
  TGI: > 96.7 µM
U251 CNS
  TGI: > 100 µM
UACC-257 melanoma
  TGI: > 89.7 µM
KM12 colon
  TGI: 33.4 µM
HCT-15 colon
  TGI: 37.3 µM
OVCAR-4 ovarian
  TGI: > 81.1 µM
SN12C renal
  TGI: > 96.5 µM
CAKI-1 renal
  TGI: 50 µM
HT29 colon
  TGI: > 89.5 µM
A498 renal
  TGI: 80.8 µM
K-562 leukemia
  TGI: 45.8 µM
NCI-H522 lung
  TGI: 16.1 µM
UACC-62 melanoma
  TGI: > 50.7 µM
LOX IMVI melanoma
  TGI: > 100 µM

Reference: PubChem BioAssay (NCI)
